From patent US20020065225A1, “Methods of determining altered NDPK functions and the diagnosis of cystic fibrosis” (priority 1999, published 2002)

Key:
annexin I = assay: Inhibition of annexin I phosphorylation in a membrane preparation; format: biochemical
Experimental: Following pre-incubation with N^6-monobutyryladenosine 3′:5′ cyclic monophosphate (N^6-mbcAMP) (0-1 mM) at 4° C. for 30 min, a membrane preparation was phosphorylated with γ[^32P] ATP at 37° C. for 5 min.
As described previously^15. Phosphorylation and Electronic Autoradiography - Briefly, proteins were phosphorylated with either 37 kBq γ[^32P] ATP or GTP (final nucleotide concentration, 16 nM) in 10 mM MOPS pH 7.9 containing 5 mM DTT. The reaction was terminated by adding 5x Laemmli sample buffer (Laemmli (1970) Nature 227, 680-685) and the proteins separated by SDS-PAGE using 12.5% polyacrylamide gels. Pre-stained molecular weight markers were used to avoid staining and destaining of gels prior to imaging and quantification. The incorporation of ^32PO4 into individual protein bands was detected using electronic autoradiography (Canberra-Packard Instant Imager).

NDPK [1] = assay: Peptide-affinity column binding of human nasal membrane proteins, eluate labelled with [32P]ATP; settings: wild-type human nasal epithelium membrane proteins, eluate slot blots exposed to [32P]ATP
Experimental: (§1) We speculated that this part of CFTR would associate with protein(s) from the chloride-sensitive phosphorylation cascade. We constructed peptides corresponding to the CFTR region encompassing position 508 of human CFTR. Membrane proteins from wild-type human nasal epithelium were incubated with either of two peptides corresponding to the wild-type or the ΔF508 mutant form of CFTR (KENIIFGVSYDEYR or KENIIGVSYDEYR, respectively) linked to an affinity matrix (^18). […] In order to generate sufficient material to characterise the bound protein(s), this experiment was repeated using the equivalent ovine wild-type CFTR peptide (KDNIIFGVSYDEYR) and membrane proteins from ovine tracheal epithelia (^18) Proteins eluted from this peptide column were phosphorylated with γ[^32P]ATP and separated by SDS-PAGE. […] In contrast, the failure of membrane-delimited UTP production in CF does provide an additional rationale for the administration of UTP in this disease.
18. Human nasal epithetium: Apical membrane proteins from human nasal epithelium were solubilised at 4° C. (10 mM KOH, 0.1% Tween), dialysed against PBS-Tween containing protease inhibitors (3 h) and spun at 150 000 g for 1 h. The supernatant was then re-circulated over affinity supports containing either synthetic peptide KENIIFGVSYDEYR or KENIIGVSYDEYR, corresponding to the F508 region of wild-type or […] mutant CFTR, respectively. The columns were washed with PBS-Tween (0.1%) and eluted with 1M KI. Fractions (40×1 ml) were slot blotted onto nitrocellulose under vacuum. The blots were washed in buffer A (10 mM MOPS pH 7.9, 1 mM MgCl2, 0.05% Triton X-100, 1 mM ATP) for 10 min and subsequently labelled with 5 nM γ[^32P]ATP (specific activity 222 TBq/mmol) in buffer A (1 h at room temperature). The blots were finally washed with PBS-Tween (0.1%) for 30 min (6 buffer changes) and visualised using electronic autoradiography. Sheep tracheal epithelia. The pelleted membranes from sheep tracheal epithelia were solubilised with 0.1% glucopyranoside in 50 mM HEPES pH 7.4 on ice for 1 h and centrifuged at 100 000×g for 30 min. […]

Anx I [2] = assay: Nature of the phospho-linkage on ovine [32P]Anx I; format: biochemical; settings: data not shown
Experimental: Previously, annexins have been reported, to be phosphorylated on serine and tyrosine residues within the N-terminus by PKC and EGF receptor kinase, respectively^18 but acid hydrolysis (6 N HCl at 105° C., 2 h) of ovine [^32P]Anx I. (labelled for 5 min) removed>95% of the radioactivity from p37 (Anx I) (data not shown). Further analysis confirmed that this phospho-linkage was not on serine, threonine or tyrosine residues because it was acid labile (FIG. 5e, lanes 1 and 3), base stable (FIG. 5e, lane 2) and inhabitable following pre-incubation with diethylpyrocarbamate (modifies histidine residues, data not shown). […] To our knowledge, this is the first report in annexins. […] Histidine phosphorylation may regulate the proposed functions of the core—cation channel permeation^20 and/or membrane fusion^6,8.
As described previously^19. In order to determine the nature of the phosphate linkage on [^32-P]-annexin I, a membrane fraction was labelled with γ[^32P] GTP or γ[^32P] ATP for 5 min at 37° C. The reaction was terminated with 5x Laemmli sample buffer. Phosphorylated protein (10 μg) was then incubated at 30° C. for 10 min in reaction mixtures containing phosphorylation buffer alone, 0.1 N HCl (pH 1), 0.1 N NaOH (pH 13) or 0.8 M hydroxylamine-0.1 M acetate (pH 5.2). […]

NDPK [3] = assay: Ovine CFTR peptide affinity column with ovine tracheal epithelial membrane proteins; format: binding, sheep; settings: for Western blot of eluate with antibodies specific to NDPK: eluate from ovine CFTR peptide column; for phosphorylated species in eluate of peptide column (SDS-PAGE, electronic autoradiography): ovine tracheal membrane proteins, eluate phosphorylated with γ[32P]ATP
Experimental: as §1
18. Human nasal epithetium: Apical membrane proteins from human nasal epithelium were solubilised at 4° C. (10 mM KOH, 0.1% Tween), dialysed against PBS-Tween containing protease inhibitors (3 h) and spun at 150 000 g for 1 h. The supernatant was then re-circulated over affinity supports containing either synthetic peptide KENIIFGVSYDEYR or KENIIGVSYDEYR, corresponding to the F508 region of wild-type or […] mutant CFTR, respectively. The columns were washed with PBS-Tween (0.1%) and eluted with 1M KI. Fractions (40×1 ml) were slot blotted onto nitrocellulose under vacuum. The blots were washed in buffer A (10 mM MOPS pH 7.9, 1 mM MgCl2, 0.05% Triton X-100, 1 mM ATP) for 10 min and subsequently labelled with 5 nM γ[^32P]ATP (specific activity 222 TBq/mmol) in buffer A (1 h at room temperature). The blots were finally washed with PBS-Tween (0.1%) for 30 min (6 buffer changes) and visualised using electronic autoradiography. Sheep tracheal epithelia. The pelleted membranes from sheep tracheal epithelia were solubilised with 0.1% glucopyranoside in 50 mM HEPES pH 7.4 on ice for 1 h and centrifuged at 100 000×g for 30 min. The supernatant was applied to a peptide affinity column (KDNIIFGVSYDEYRC, corresponding to the F508 region of ovine wild-type CFTR, coupled to epoxy activated POROS 20 media using the additional terminal cysteine residue). The column was washed with load buffer containing 1M NaCl, followed by load buffer only (100 column volumes or stable OD280˜0.015). Bound proteins were eluted with 50 mM glycine-NaOH pH 11 containing 0.1% glucopyranoside and immediately neutralised with 1M Tris-HCl pH 8.0.

p37 (Anx I) = settings: cited from earlier work
Anx I [4] = assay: Anx I phosphorylation in murine tracheal epithelium membrane and cytosol with ATP+GDP; format: biochemical, mouse
Text: Cyclic AMP controls both the membrane aggregating and the cation channel properties of Anx I via a proposed cAMP binding site^20. Because cAMP-dependent fluid secretion^22 and vesicle trafficking^2,3,22 are both disordered in CF airway and annexins share significant homology with the region of CFTR (amino acids 500-529) bearing the common disease mutation^7, we speculated that annexins may be involved in CF. […] We observed an absence of a 37 kDa phosphoprotein in plasma membranes from the airway of a CF mouse model, Cftr^tm1cam, which expresses no CFTR (FIG. 6a, quantitation FIG. 6e). We confirmed the identity of murine p37 as Anx I by immunoprecipitating pre-phosphorylated [^32P]p37 from wild type membranes using antibodies against Anx I (FIG. 5c). […] Because Anx I is a membrane-associated protein which shuttles between membrane and cytosol^26, we studied Anx I phosphorylation in cytosol from wild-type and Cftr^tm1Cam. In the absence of GDP and in contrast to the membrane, we found no differences in Anx I phosphorylation between wild-type and Cftr^tm1Cam cytosol (FIG. 6b; quantitation f). We confirmed the identity of cytosolic p37 as Anx I by immunoprecipitating pre-phosphorylated [^32P]p37 as described above (data not shown). […] It is possible that the excess protein results from a compensatory increase in synthesis to overcome a disruption of function. Excess Anx I protein is consistent with the elevated plasma concentrations of the calcium-dependent annexin binding proteins (S100A8 and A9 or CF antigen) in both CF carriers and patients^27. S100 proteins form obligate dimers^6 which bring together the N termini of different Anx I monomers to promote membrane-membrane fusion.
Swiss mice (wild-type) (6-10 weeks old) and mutant Cftr^tm1Cam mice^12 (4-12 weeks old) were used in this study. […]
As described previously^15. […] Pre-stained molecular weight markers were used to avoid staining and destaining of gels prior to imaging and quantification. The incorporation of ^32PO4 into individual protein bands was detected using electronic autoradiography (Canberra-Packard Instant Imager).

CCCC(=O)Nc1ncnc2c1ncn2[C@@H]1O[C@@H]2COP(=O)(O)O[C@H]2[C@H]1O [N^6-mbcAMP, N^6-monobutyryladenosine 3′:5′ cyclic monophosphate]
concentration of maximal inhibition of (histidine) phosphorylation of annexin I (annexin I; pre-incubation 0-1 mM, 4° C., 30 min, γ[32P]ATP 37° C., 5 min): 1 mM

KENIIGVSYDEYR [synthetic peptide corresponding to the F508 region of ΔF508 mutant human CFTR]
phosphorylatable protein bound by and eluted from peptide-affinity column (NDPK [1]): No phosphorylation was observed

CCOC(=O)OC(=O)OCC [diethylpyrocarbamate]
effect of pre-incubation on Anx I phospho-linkage (Anx I [2]): inhabitable

KDNIIFGVSYDEYR [equivalent ovine wild-type CFTR peptide; coupled to the column via an additional terminal cysteine]
Western blot of eluate with antibodies specific to NDPK (NDPK [3]): detected a 21 kDa protein, indicating the presence of NDPK
Western blot of eluate with antibodies specific to NDPK (NDPK [3]; listed as ovine CFTR peptide): detected a 21 kDa protein
phosphorylated species in eluate of peptide column (SDS-PAGE, electronic autoradiography) (NDPK [3]): a 19/21 kDa doublet was the sole phosphorylated species in the eluate
phosphorylated species in eluate of peptide column (SDS-PAGE, electronic autoradiography) (NDPK [3]; listed as ovine CFTR peptide): showed a 19/21 kDa phosphoprotein

KENIIFGVSYDEYR [synthetic peptide corresponding to the F508 region of wild-type human CFTR]
phosphorylatable protein bound by and eluted from peptide-affinity column (NDPK [1]): bound protein(s) that could be phosphorylated
phosphorylatable protein bound by and eluted from peptide-affinity column (NDPK [1]; listed as wild-type peptide): a phosphoprotein was observed in fraction 22

Nc1nc2c(ncn2[C@@H]2O[C@H](COP(=O)(O)OP(=O)(O)O)[C@@H](O)[C@H]2O)c(=O)[nH]1 [GDP]
enhancement of phosphorylation of the 37 kDa protein (p37 (Anx I); ATP (50 nM)+GDP (500 nM), 37° C., 5 min (ref 15)): 20 fold
effect on p37 (Anx I) phosphorylation (p37 (Anx I); previously found (ref 15)): enhanced
effect on Anx I phosphorylation, Cftr^tm1Cam cytosol (Anx I [4]; Cftr^tm1Cam cytosol, GDP added to γ[32P]ATP): partial restoration of Anx I phosphorylation
effect on histidine phosphorylation of Anx I, Cftr^tm1Cam membranes (Anx I [4]; Cftr^tm1Cam membranes, ATP+GDP): failed to either restore or enhance
effect on Anx I phosphorylation, wild type membranes (Anx I [4]; wild type murine membranes, γ[32P]ATP+GDP): enhancement was also observed

Nc1ncnc2c1ncn2[C@@H]1O[C@@H]2COP(=O)(O)O[C@H]2[C@H]1O [cyclic AMP]
inhibition of p37 phosphorylation (annexin I; observed whilst characterising NDPK): inhibiton of p^37 phosphorylation
